**Q.** Which melting point does the source give for `CCCCOc1ccc(Cl)cc1C(=O)N[C@H]1C[C@@H]1c1ccc(-c2ccc(C(=O)O)cc2)cc1` [Compound 108, 4′-{(1R,2S)-2-[(2-butoxy-5-chlorobenzoyl)amino]cyclopropyl}-biphenyl-4-carboxylic acid] here?
**A.** 218 to 222 °C
